Measured values published in patent US9353150B2, “Substituted pyrazino[1′,2′:1 ,5]pyrrolo[2,3-b]-indole-1,4-diones for cancer treatment” (Massachusetts Institute of Technology, priority 2012, dated 2016).
Entries after “also recorded” stand apart in the source; their conditions may differ. Like-named read-outs stand apart in the source and are kept apart here.

Legend:
[1] = tested on: U-937 (hystiocytic lymphoma); assay: 72-hour IC50 determination for non-adherent cells using MTS; format: cell-based, human
Protocol: (§1) Certain synthesized compounds were screened for their ability to induce death in two human cancer cell lines: U-937 (leukemic monocyte lymphoma) and HeLa (cervical cancer).
(§2) Cells were grown in media supplemented with fetal bovine serum (FBS) and antibiotics ([…]). Specifically, experiments were performed using the following cell lines and media compositions: U-937, HeLa, H460, and 786-O (RPMI-1640+10% FBS), and MCF7 (EMEM+10% FBS). Cells were incubated at 37° C. in a 5% CO2, 95% humidity atmosphere.
(§3) In a 96-well plate, compounds were pre-added as DMSO stocks in triplicate to achieve a final concentration of 1%. DMSO and cell-free wells served as the live and dead control, respectively. U-937 (5,000 cells/well) cells were distributed in 100 μL media to the compound-containing plate. After 72 hours, cell viability was assessed by adding 20 μL of a PMS/MTS solution (Cory, A. H.; Owen, T. C.; Barltrop, J. A.; Cory, J. G. Cancer Commun. 1991, 3, 207) to each well, allowing the dye to develop at 37° C. until the live control had processed MTS, and reading the absorbance at λ=490 nm. IC50 values were determined from three or more independent experiments using TableCurve (San Jose, Calif.).

[2] = tested on: HeLa (cervical carcinoma); assay: 72-hour IC50 determination for adherent cells using sulforhodamine B (SRB); format: cell-based, human
Protocol: as §1, §2
(§4) Adherent cells (HeLa, H460, 786-O, and MCF7) were added into 96-well plates (5,000 cells/well for HeLa cell line; 2,000 cells/well for H460, 786-O, and MCF7 cell lines) in 100 μL media and were allowed to adhere for 2-3 hours. Compounds were solubilized in DMSO as 100× stocks, added directly to the cells (100 μL final volume), and tested over a range of concentrations in triplicate (1% DMSO final) on a half-log scale. Concentrations tested ranged from […] to 10 μM, depending on the potency of the compound. DMSO and cell-free wells served as the live and dead control, respectively. After 72 hours of continuous exposure, the plates were evaluated using the SRB colorimetric assay as described previously (Vichai, V.; Kirtikara, K. Nature Prot. 2006, 1, 1112). Briefly, media was removed from the plate, and cells were fixed by the addition of 100 μL cold 10% trichloroacetic acid in water. After incubating at 4° C. for an hour, the plates were washed in water and allowed to dry. Sulforhodamine B was added as a 0.057% solution in 1% acetic acid (100 μL), and the plates were incubated at room temperature for 30 minutes, washed in 1% acetic acid, and allowed to dry. The dye was solubilized by adding 10 mM Tris base solution (pH 10.5, 200 μL) and incubating at room temperature for 30 minutes. Plates were read at λ=510 nm. IC50 values were determined from three or more independent experiments using TableCurve (San Jose, Calif.).

[3] = tested on: 786-O (renal carcinoma); assay: as above; format: cell-based, human; details: error is standard deviation of the mean, n ≧ 3, read-out: 786-O, 72-hour IC50 (Table E1-2)
Protocol: (§5) Certain provided compounds were tested in culture against a panel of three supplementary human cancer cell lines representing three additional tumor histologies (H460, lung carcinoma; 786-O, renal carcinoma; MCF-7, breast carcinoma). As shown in Table E1-2, the ETPs retain their potency across the cell lines. In some embodiments, a provided compound is active in all cell lines. In some embodiments, a provide compound can be used to selectively target certain cells and/or cancers. […] Without the intention to be limited, Applicant notes that certain cell lines could be more sensitive to provided compounds; for example, U-937 and HeLa are slightly more sensitive to the ETPs than the other three cell lines.
as §2, §4

[4] = tested on: H460 (lung carcinoma); assay: as above; format: cell-based, human; details: error is standard deviation of the mean, n ≧ 3, read-out: H460, 72-hour IC50 (Table E1-2)
Protocol: as §5, §2, §4

[5] = tested on: MCF-7 (breast carcinoma); assay: as above; format: cell-based, human; details: error is standard deviation of the mean, n ≧ 3, read-out: MCF-7, 72-hour IC50 (Table E1-2)
Protocol: as §5, §2, §4

[6] = tested on: human cancer cell lines; assay: Anticancer activity in human cancer cell lines, not tied to one cell line; format: cell-based; details: for anticancer activity, in words: human cancer cell lines, 72-hour exposure
Protocol: as §1, §5, §4, §3

[7] = Homo sapiens, U-937, 72-hour exposure, MTS, error is standard deviation of the mean, n ≧ 3, read-out: U-937, 72-hour IC50 (Table E1-1)
[8] = Homo sapiens, U-937, 72-hour exposure, MTS, error is standard deviation of the mean, n ≧ 3, read-out: U-937, 72-hour IC50 (Table E1-2)
[9] = Homo sapiens, HeLa, 72-hour exposure, SRB, error is standard deviation of the mean, n ≧ 3, read-out: HeLa, 72-hour IC50 (Table E1-1)
[10] = Homo sapiens, HeLa, 72-hour exposure, SRB, error is standard deviation of the mean, n ≧ 3, read-out: HeLa, 72-hour IC50 (Table E1-2)
[11] = Homo sapiens, 786-0, 72-hour exposure
[12] = Homo sapiens, NCI-H460, 72-hour exposure
[13] = Homo sapiens, MCF7, 72-hour exposure
[14] = 72-hour exposure, MTS, error is standard deviation of the mean, n ≧ 3, read-out: U-937, 72-hour IC50 (Table E1-1)
[15] = 72-hour exposure, MTS, error is standard deviation of the mean, n ≧ 3, read-out: U-937, 72-hour IC50 (Table E1-2)
[16] = 72-hour exposure, SRB, error is standard deviation of the mean, n ≧ 3, read-out: HeLa, 72-hour IC50 (Table E1-1)
[17] = 72-hour exposure, SRB, error is standard deviation of the mean, n ≧ 3, read-out: HeLa, 72-hour IC50 (Table E1-2)

| SMILES | IC50 [1, 7] [µM] | IC50 [1, 8] [µM] | IC50 [2, 9] [µM] | IC50 [2, 10] [µM] | IC50 [3, 11] [µM] | IC50 [4, 12] [µM] | IC50 [5, 13] [µM] | anticancer activity, in words [6] | IC50 [1, 14] [µM] | IC50 [1, 15] [µM] | IC50 [2, 16] [µM] | IC50 [2, 17] [µM] | IC50 ([3]; 72-hour exposure) [µM] | IC50 ([4]; 72-hour exposure) [µM] | IC50 ([5]; 72-hour exposure) [µM] | other results |
| --- | --- | --- | --- | --- | --- | --- | --- | --- | --- | --- | --- | --- | --- | --- | --- | --- |
| CN1C(=O)C23CC4(C56CC78SC(=S)S[C@](C)(C(=O)N7[C@H]5N(S(=O)(=O)c5ccccc5)c5ccccc56)N(C)C8=O)c5ccccc5N(S(=O)(=O)c5ccccc5)[C@@H]4N2C(=O)[C@@]1(C)SC(=S)S3 (stereo partly shown) [Compound 18, Dimeric bisdithiepanethione] | 0.0029 ± 0.0021 | 0.0029 ± 0.0021 | 0.0011 ± 0.0008 | 0.0011 ± 0.0008 | 0.0149 ± 0.0044 | 0.0185 ± 0.0027 | 0.0107 ± 0.0081 | competent anticancer agents; also recorded: active across the board | – | – | – | – | – | – | – | – |
| CN1C(=O)[C@@]23C[C@]4([C@]56C[C@@]78SS[C@@](C)(C(=O)N7[C@H]5Nc5ccccc56)N(C)C8=O)c5ccccc5N[C@@H]4N2C(=O)[C@]1(C)SS3 [Compound 3, (+)-12,12′-dideoxyverticillin A] | – | – | – | – | – | – | – | active across the board | 0.0155 ± 0.0029 | 0.0155 ± 0.0029 | 0.0072 ± 0.003 | 0.0072 ± 0.003 | 0.0335 ± 0.0126 | 0.042 ± 0.015 | 0.0284 ± 0.0045 | IC50 ([1]; 72-hour exposure, read-out: IC50 (U-937)): 0.0155 µM; IC50 ([2]; 72-hour exposure, read-out: IC50 (HeLa)): 0.0072 µM |
| CN1C(=O)C23CC4(c5c[nH]c6ccccc56)c5ccccc5N(S(=O)(=O)c5ccccc5)C4N2C(=O)C1(C)SC(=S)S3 (stereo not shown) [Compound 64, C3-(Indo-3′-v)dithiepanethiones] | – | – | – | – | – | – | – | competent anticancer agents | 0.024 ± 0.012 | 0.024 ± 0.012 | 0.0253 ± 0.002 | 0.0253 ± 0.002 | 0.266 ± 0.085 | 0.222 ± 0.072 | 0.21 ± 0.073 | – |
| CC(=O)S[C@H]1C(=O)N2[C@H]3N(S(=O)(=O)c4ccccc4)c4ccccc4[C@@]3(c3c[nH]c4ccccc34)C[C@]2(SC(C)=O)C(=O)N1C [Compound 44, C3-(Indol-3′-yl)bisthloaeetate] | 0.0041 ± 0.0005 | 0.0041 ± 0.0005 | 0.0173 ± 0.0045 | 0.0173 ± 0.0045 | 0.151 ± 0.007 | 0.149 ± 0.059 | 0.103 ± 0.037 | competent anticancer agents | – | – | – | – | – | – | – | – |
| CSS[C@H]1C(=O)N2[C@H]3N(S(=O)(=O)c4ccccc4)c4ccccc4[C@@]3(c3cn(SC)c4ccccc34)C[C@]2(SSC)C(=O)N1C [Compound 45, C3-(Indol-3′-yl) N-(thiomethyl)bis(methyldisulfane)] | 0.0145 ± 0.0091 | 0.0145 ± 0.0091 | 0.0137 ± 0.0023 | 0.0137 ± 0.0023 | 0.376 ± 0.12 | 0.252 ± 0.037 | 0.373 ± 0.075 | competent anticancer agents | – | – | – | – | – | – | – | – |
| CN1C(=O)[C@@]23C[C@]4(c5cc[nH]c5)c5ccccc5N(S(=O)(=O)c5ccccc5)[C@@H]4N2C(=O)[C@@H]1SS3 [Compound 32, C3-(Pyrrol-3′-yl) epidithiodiketopiperazine] | – | – | – | – | 0.066 ± 0.023 | 0.0318 ± 0.0025 | 0.061 ± 0.011 | – | – | – | – | – | – | – | – | IC50 ([1]; Homo sapiens, U-937, 72 h, read-out: IC50 (U-937)): 0.0028 to 0.0148 µM; IC50 ([1]; Homo sapiens, U-937, 72 h, read-out: U-937, 72-hour IC50 (Table E1-1)): 0.0148 ± 0.0031 µM; IC50 ([1]; Homo sapiens, U-937, 72 h, read-out: U-937, 72-hour IC50 (Table E1-2)): 0.0148 ± 0.0031 µM; IC50 ([2]; Homo sapiens, HeLa, 72 h, read-out: HeLa, 72-hour IC50 (Table E1-1)): 0.0268 ± 0.0048 µM; IC50 ([2]; Homo sapiens, HeLa, 72 h, read-out: HeLa, 72-hour IC50 (Table E1-2)): 0.0268 ± 0.0048 µM; IC50 ([2]; Homo sapiens, HeLa, 72 h, read-out: IC50 (HeLa)): 0.022 to 0.075 µM; change in activity across cell lines ([6]; five cell lines of Table E1-2): 4 fold |
| CN1C(=O)[C@@]23C[C@]4([C@]56C[C@@]78SS[C@@](CO)(C(=O)N7[C@H]5Nc5ccccc56)N(C)C8=O)c5ccccc5N[C@@H]4N2C(=O)[C@]1(CO)SS3 [Compound 4, (+)-chaetocin A] | – | – | – | – | – | – | – | active across the board | 0.00081 ± 0.00015 | 0.00081 ± 0.00015 | 0.0069 ± 0.002 | 0.0069 ± 0.002 | 0.0265 ± 0.0077 | 0.053 ± 0.023 | 0.05 ± 0.016 | – |
| CN1C(=O)[C@@]23C[C@]4(F)c5ccccc5N(S(=O)(=O)c5ccccc5)[C@@H]4N2C(=O)[C@@H]1SS3 [Compound 31, C3-Fluoro epidithiodiketopiperazines] | – | – | – | – | – | – | – | intermediately good activity | 0.0207 ± 0.0064 | 0.0207 ± 0.0064 | 1.53 ± 0.44 | 1.53 ± 0.44 | 0.368 ± 0.078 | > 1 | 0.218 ± 0.097 | – |
| CN1C(=O)[C@]23C[C@]4(F)c5ccccc5N(S(=O)(=O)c5ccccc5)[C@@H]4N2C(=O)[C@H]1SS3 [Compound 35, C3-Fluoro epidithiodiketopiperazines] | – | – | – | – | – | – | – | intermediately good activity | 0.0213 ± 0.0087 | 0.0213 ± 0.0087 | 0.056 ± 0.021 | 0.056 ± 0.021 | 0.064 ± 0.02 | 0.123 ± 0.05 | 0.093 ± 0.034 | – |
